Data taken from article PMC9848351, “Discovery of new pyridine-quinoline hybrids as competitive and non-competitive PIM-1 kinase inhibitors with apoptosis induction and caspase 3/7 activation capabilities” (Journal of Enzyme Inhibition and Medicinal Chemistry, 2023).

What was measured:
[1] = test system: normal human lung fibroblast Wi-38 cell line; experiment: MTT cytotoxicity on normal cells; type: cell-based; conditions: Wi-38, 72 h, MTT, mean ± SEM; for EC50: Homo sapiens, 50% cell viability; for Wi-38 EC100: safe dose, 100% cell viability
Protocol: Cytotoxicity of the tested compounds was evaluated using normal human lung fibroblast Wi-38 cell line compared to currently used anticancer drug (doxorubicin) using MTT method was used for assaying cell viability[26] (Supplementary Page S55).
Cytotoxicity test is one of the biological evaluations and screening tests that use human normal and cancer cells in-vitro to observe the effect of the studied compounds on their growth using MTT-based cytotoxicity. Microculture MTT method[26] was used to determine cytotoxic activity of the newly synthesised compounds against normal human lung fibroblast (Wi-38) using doxorubicin (Dox) as standard anticancer drug. The highest IC50 and EC100 values illustrate that the compounds were safe on the proliferation of normal human cells. […]. page 47:
(§1) Cytotoxicity of the tested compounds was evaluated using normal human lung fibroblast Wi-38 cell line compared to currently used anticancer drug (doxorubicin).
Firstly, Wi-38 cell line was subcultured in DMEM medium-contained 10% fetal bovine serum (FBS), then, seeded as 5x10^3 cells per well in 96-well cell culture plate and incubated at 37 °C in 5% CO 2 incubator. Serial concentrations of these compounds and doxorubicin (Dox) were incubat ed with Wi-38 cells for 72 h after 24 h for cell attachment. MTT method was used for assaying cell viability 25. Twenty microliters of 5 mg/ml MTT (Sigma, USA) was added to each well and the plate was incubated at 37 °C for 3 h. Then MTT solution was removed, 100 µl DMSO was used and the absorbance of each well was measured with a microplate reader ( BMG LabTech, Germany) at 570 nm. The effective concentration (IC 50) and safe dose (EC100) values of the tested compounds that cause 50% and 100% cell viability were estimated by the Graphpad Instat software. […]

[2] = test system: myeloid leukaemia cell line (NFS-60); experiment: MTT anticancer activity, NFS-60; type: cell-based; conditions: NFS-60, 72 h, MTT; mean ± SEM
Protocol: (§2) Anticancer effect of the above-mentioned compounds was evaluated using four human cancer cell lines. Colon cancer cells (Caco-2), myeloid leukaemia cell line (NFS-60), liver cancer cell line (HepG-2) and prostate cancer cell line (PC-3) using MTT method was used for assaying cell viability[26] (Supplementary Page S55).
(§3) All final compounds were evaluated against four human cancer cell lines namely; liver cancer (HepG2) (ATCC® HB-8065™), colon cancer (Caco-2) (ATCC® HTB-37™), leukaemia cancer (NFS-60) (ATCC® CRL-1838™), and prostate cancer (PC-3) (ATCC® CRL-1435™) using doxorubicin (Dox) as the reference drug being widely used in tumour management utilising microculture MTT assay, declared by Mosmann[26] (Table 1 in Supplementary Material, Figures 5–8). […]
(§4) MTT method was used for assaying cell viability 25. Twenty microliters of 5 mg/ml MTT (Sigma, USA) was added to each well and the plate was incubated at 37 °C for 3 h. Then MTT solution was removed, 100 µl DMSO was used and the absorbance of each well was measured with a microplate reader ( BMG LabTech, Germany) at 570 nm. The effective concentration (IC 50) and safe dose (EC100) values of the tested compounds that cause 50% and 100% cell viability were estimated by the Graphpad Instat software.
(§5) Determination of the anticancer activity
(§6) Anticancer effect of the above-mentioned compounds was evaluated using four human cancer cell lines. Colon cancer cells (Caco-2) were maintained in DMEM (Lonza, USA) containing 10% FBS while myeloid leukemia cell line (NFS-60), liver cancer cell line (HepG-2) and prostate cancer cell line (PC-3) were cultured in RPMI-1640 (Lonza, USA) supplemented with 10% FBS. All cancer cells (5x10^3 cells/well) were seeded in sterile 96-well plates. After 24h, serial concentrations of the tested compounds and Dox were incubated with four cancer cell lines for 72 h at 37 °C in 5% CO2 incubator. MTT method was done as described above. The Graphpad Instat software was used for calculating the half maximal inhibitory concentration (IC50) values. Furthermore, phase contrast inverted microscope with a digital camera (Olympus, Japan) was used for investigating […]
(§7) safest anticancer compounds. […]

[3] = test system: liver cancer cell line (HepG-2); experiment: MTT anticancer activity, HepG-2; type: cell-based, human; conditions: Homo sapiens, HepG2; HepG-2, 72 h, MTT; mean ± SEM
Protocol: as §2, §3, §4, §5, §6, §7

[4] = test system: Colon cancer cells (Caco-2); experiment: MTT anticancer activity, Caco-2; type: cell-based, human; conditions: for IC50: Caco-2, 72 h, MTT, mean ± SEM; for Caco-2 SI: selectivity index, Wi-38 versus Caco-2
Protocol: as §2
All final compounds were evaluated against four human cancer cell lines namely; liver cancer (HepG2) (ATCC® HB-8065™), colon cancer (Caco-2) (ATCC® HTB-37™), leukaemia cancer (NFS-60) (ATCC® CRL-1838™), and prostate cancer (PC-3) (ATCC® CRL-1435™) using doxorubicin (Dox) as the reference drug being widely used in tumour management utilising microculture MTT assay, declared by Mosmann[26] (Table 1 in Supplementary Material, Figures 5–8).
as §1
Firstly, Wi-38 cell line was subcultured in DMEM medium-contained 10% fetal bovine serum (FBS), then, seeded as 5x10^3 cells per well in 96-well cell culture plate and incubated at 37 °C in 5% CO 2 incubator. Serial concentrations of these compounds and doxorubicin (Dox) were incubat ed with Wi-38 cells for 72 h after 24 h for cell attachment. MTT method was used for assaying cell viability 25. Twenty microliters of 5 mg/ml MTT (Sigma, USA) was added to each well and the plate was incubated at 37 °C for 3 h. Then MTT solution was removed, 100 µl DMSO was used and the absorbance of each well was measured with a microplate reader ( BMG LabTech, Germany) at 570 nm. The effective concentration (IC 50) and safe dose (EC100) values of the tested compounds that cause 50% and 100% cell viability were estimated by the Graphpad Instat software.
as §5, §6, §7

[5] = test system: prostate cancer cell line (PC-3); experiment: MTT anticancer activity, PC-3; type: cell-based, human; conditions: PC-3, 72 h, mean ± SEM
Protocol: as §2, §3, §4, §5, §6, §7

Structure (SMILES)	EC50 [1]	Wi-38 EC100 [1]	melting point	IC50 [2]	IC50 [3]	IC50 ([4]; Homo sapiens)	Caco-2 SI [4]	IC50 ([5]; Homo sapiens, 72 h)	IC50 [5]	IC50 [4]
N#Cc1c(-c2cc3ccccc3nc2N2CCOCC2)cc(-c2cccc(O)c2)[nH]c1=O [5a, 6-(3-Hydroxyphenyl)-4-(morpholin-4-yl-quinolin-3-yl)-2-oxo-1,2-dihydropyridine-3-carbonitrile]	60.3 ± 40 nM	0.0192 ± 0.003 µM	> 300 °C	31.62 ± 0.1 nM	34.4 ± 6 nM	38.8 ± 8 nM	1.554			
N#Cc1c(-c2cc3ccccc3nc2N2CCCCC2)cc(-c2cccc(O)c2)[nH]c1=O [5d, 6-(3-Hydroxyphenyl)-2-oxo-4-(2-(piperidin-1-yl)quinoline-3-yl)-1,2-dihydropyridine-3-carbonitrile]	29.9 ± 0.1 nM	0.0239 ± 0.0003 µM	244 to 246 °C	71.3 ± 3 nM	89.7 ± 13 nM	38.6 ± 1 nM	0.775	53.4 ± 4 nM		
N#Cc1c(-c2cc3cc(Cl)ccc3nc2N2CCCCC2)cc(-c2cccc(O)c2)[nH]c1=O [5e, 4-(6-Chloro-2-(piperidin-1-yl)quinoline-3-yl)-6-(3-hydroxyphenyl)-2-oxo-1,2-dihydropyridine-3-carbonitrile]	27.6 ± 1 nM	0.0234 ± 0.001 µM	> 300 °C	62.7 ± 27 nM	36.1 ± 1 nM	51.7 ± 5 nM	0.534	40.9 ± 1 nM		
COc1ccc2nc(N3CCCCC3)c(-c3cc(-c4cccc(O)c4)[nH]c(=O)c3C#N)cc2c1 [5f, 6-(3-Hydroxyphenyl)-4-(6-methoxy-2-(piperidin-1-yl)quinolin-3-yl)-2-oxo-1,2-dihydropyridine-3-carbonitrile]	29.8 ± 2 nM	0.0258 ± 0.008 µM	265 to 267 °C	42.83 ± 0.3 nM	37.8 ± 10 nM	50.8 ± 4 nM	0.587	45.1 ± 0.1 nM		
N#Cc1c(-c2cc3ccccc3nc2N2CCOCC2)cc(-c2cccc(O)c2)nc1S [6a, 6-(3-Hydroxyphenyl)-4-(2-morpholin-4-yl-quinolin-3-yl)-2-mercaptopyridine-3-carbonitrile]	181 ± 5 nM	0.0785 ± 0.003 µM	240 to 242 °C	135 ± 2 nM	74 ± 2 nM	104 ± 4 nM	1.740	127 ± 2 nM		
N#Cc1c(-c2cc3cc(Cl)ccc3nc2N2CCOCC2)cc(-c2cccc(O)c2)nc1S [6b, 4-(6-Chloro-2-morpholin-4-yl-quinolin-3-yl)-6-(3-hydroxyphenyl)-2-mercaptopyridine-3-carbonitrile]	138 ± 2 nM	0.0493 ± 0.001 µM	260 to 261 °C	204 ± 6 nM	46.6 ± 1 nM	55.2 ± 3 nM	2.500	119 ± 14 nM		
COc1ccc2nc(N3CCOCC3)c(-c3cc(-c4cccc(O)c4)nc(S)c3C#N)cc2c1 [6c, 6-(3-Hydroxyphenyl)-4-(6-methoxy-2-morpholin-4-yl-quinolin-3-yl)-2-mercaptopyridine-3-carbonitrile]	376 ± 1 nM	0.177 ± 0.011 µM	> 300 °C	145 ± 15 nM	84.8 ± 2 nM	99.9 ± 3 nM	3.764	100.8 ± 0.1 nM		
N#Cc1c(-c2cc3ccccc3nc2N2CCCCC2)cc(-c2cccc(O)c2)nc1S [6d, 6-(3-Hydroxyphenyl)-4-(2-(piperidin-1-yl)quinolin-3-yl)-2-mercaptopyridine-3-carbonitrile]	759 ± 25 nM	0.212 ± 0.009 µM	> 300 °C	217 ± 22 nM	87.6 ± 2 nM	70.8 ± 3 nM	10.720	135 ± 11 nM		
CC(=O)Oc1cccc(-c2cc(-c3cc4ccccc4nc3N3CCOCC3)c(C#N)c(=O)[nH]2)c1 [7a, 3-(5-Cyano-4-(2-morpholin-4-yl-quinolin-3-yl)-6-oxo-1,6-dihydropyridin-2-yl)phenyl acetate]	174 ± 5 nM	0.102 ± 0.01 µM	> 300 °C	145 ± 2 nM	49.5 ± 0.1 nM	79.9 ± 3 nM	2.178	140 ± 20 nM		
CC(=O)Oc1cccc(-c2cc(-c3cc4cc(Cl)ccc4nc3N3CCOCC3)c(C#N)c(=O)[nH]2)c1 [7b, 3-(4-(6-Chloro-2-morpholin-4-yl-quinolin-3-yl)-5-cyano-6-oxo-1,6-dihydropyridin-2-yl)phenyl acetate]	140 ± 9 nM	0.110 ± 0.002 µM	189 to 190 °C	107 ± 1 nM	101.6 ± 1 nM	119 ± 16 nM	1.176	135 ± 2 nM		
N#Cc1c(-c2cc3cc(Cl)ccc3nc2N2CCOCC2)cc(-c2cccc(O)c2)nc1OCC(=O)Nc1ccccc1 [11d, 2-((4-(6-Chloro-2-morpholin-4-yl-quinolin-3-yl)-3-cyano-6-(3-hydroxyphenyl)pyridin-2-yl)oxy)-N-phenylacetamide]	107 ± 1 nM	0.0455 ± 0.002 µM	277 to 280 °C		45.8 nM	< 100 nM	2.054	< 100 nM	59.4 ± 1 nM	52.1 ± 2 nM
N#Cc1c(-c2cc3cc(Cl)ccc3nc2N2CCOCC2)cc(-c2cccc(O)c2)nc1OCC(=O)Nc1ccc(Cl)cc1 [11e, 2-((4-(6-Chloro-2-morpholin-4-yl-quinolin-3-yl)-3-cyano-6-(3-hydroxyphenyl)pyridin-2-yl)oxy)-N-(4-chlorophenyl)acetamide]	85 ± 3 nM	0.0178 ± 0.0001 µM	> 300 °C		41.6 nM		2.733			
COc1ccc(NC(=O)COc2nc(-c3cccc(O)c3)cc(-c3cc4cc(Cl)ccc4nc3N3CCOCC3)c2C#N)cc1 [11f, 2-((4-(6-Chloro-2-morpholin-4-yl-quinolin-3-yl)-3-cyano-6-(3-hydroxyphenyl)pyridin-2-yl)oxy)-N-(4-methoxyphenyl)acetamide]	181 ± 13 nM	0.0347 ± 0.003 µM	228 to 230 °C		36.3 nM		5.262			
